Data taken from ChEMBL document CHEMBL1201862, “PubChem BioAssay data set” (2004).
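All cell lines were grown in 96-well plates and treated with compound for 48 hours. The concentration for 50% growth inhibition is given as GI50.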 The source made the active and inactive calls. No stated cut-off is given here; in the data, active = GI50 up to about 1.1 µM and inactive = higher.

Key:
Experiment in all cases: NCI tumour cell line growth inhibition, 48 h
[1] = system: CAKI-1
[2] = system: CCRF-CEM
[3] = system: HOP-92
[4] = system: UACC-62
[5] = system: A498
[6] = system: LOX IMVI
[7] = system: RXF 393
[8] = system: M14
[9] = system: OVCAR-4
[10] = system: NCI-H522
[11] = system: HCT-15
[12] = system: HOP-62
[13] = system: HCT-116
[14] = system: COLO 205
[15] = system: DU-145
[16] = system: Malme-3M
[17] = system: T47D
[18] = system: EKVX
[19] = system: SF-539
[20] = system: HCC 2998

| Structure (SMILES) | GI50 [1] | GI50 [2] | GI50 [3] | GI50 [4] | GI50 [5] | GI50 [6] | GI50 [7] | GI50 [8] | GI50 [9] | GI50 [10] | GI50 [11] [µM] | GI50 [12] | GI50 [13] | GI50 [14] | GI50 [15] | GI50 [16] | GI50 [17] | GI50 [18] | GI50 [19] | GI50 [20] |
| --- | --- | --- | --- | --- | --- | --- | --- | --- | --- | --- | --- | --- | --- | --- | --- | --- | --- | --- | --- | --- |
| O=C1C=C(Nc2nc(O)cc(C(=O)O)n2)c2ccccc2C1=O | > 100 µM (inactive) | > 100 µM (inactive) | > 100 µM (inactive) | > 100 µM (inactive) | > 100 µM (inactive) | > 100 µM (inactive) | > 100 µM (inactive) | > 100 µM (inactive) | > 100 µM (inactive) | > 100 µM (inactive) | > 100 | > 100 µM (inactive) | > 100 µM (inactive) | > 100 µM (inactive) | > 100 µM (inactive) | > 100 µM (inactive) | > 100 µM (inactive) | > 100 µM (inactive) | > 100 µM (inactive) | > 100 µM (inactive) |
| COC(=O)C1=C(C(=O)OC)C2OC1c1cc3ccccc3cc12 | 2.05 µM (inactive) | 1.69 µM (inactive) | 1.69 µM (inactive) | 14.5 µM (inactive) | 21.1 µM (inactive) | 15.2 µM (inactive) | 1.77 µM (inactive) | 2.1 µM (inactive) | 1.78 µM (inactive) | 1.3 µM (inactive) | 2.18 | 17.6 µM (inactive) | 1.74 µM (inactive) | 1.82 µM (inactive) | 7.78 µM (inactive) | 2.5 µM (inactive) | 2.61 µM (inactive) | 6.07 µM (inactive) | 6.27 µM (inactive) | 6.34 µM (inactive) |
| O=[N+]([O-])c1cc2ccc(N(CCO)CCO)nc2nc1N(CCO)CCO | > 100 µM (inactive) | > 100 µM (inactive) | > 100 µM (inactive) | > 100 µM (inactive) | > 100 µM (inactive) | > 100 µM (inactive) | > 100 µM (inactive) | > 100 µM (inactive) | > 100 µM (inactive) | > 100 µM (inactive) | > 100 | > 100 µM (inactive) | > 100 µM (inactive) | > 100 µM (inactive) | > 100 µM (inactive) | > 100 µM (inactive) | > 100 µM (inactive) | > 100 µM (inactive) | > 100 µM (inactive) | > 100 µM (inactive) |
| Cc1[nH]nc(C(=O)N/N=C/c2cccs2)c1/N=N\N(C)C | 5.78 µM (inactive) | 2.52 µM (inactive) | 16.3 µM (inactive) | 14 µM (inactive) | 23.4 µM (inactive) | 4.3 µM (inactive) | 14.6 µM (inactive) | 24.7 µM (inactive) | 10.5 µM (inactive) | 11.2 µM (inactive) | 13.7 | 17 µM (inactive) | 11 µM (inactive) | 11.9 µM (inactive) | 9.53 µM (inactive) | 21.4 µM (inactive) | 9.12 µM (inactive) | 39.4 µM (inactive) | 13.3 µM (inactive) | 5.06 µM (inactive) |
| CC(C)=CCC[C@@H](C)c1c2nc3ccccc3sc-2c(C)c(=O)c1O | 2.82 µM (inactive) | 2.67 µM (inactive) | 18.9 µM (inactive) | 4.99 µM (inactive) | 9.84 µM (inactive) | 4.94 µM (inactive) | 9.35 µM (inactive) | 4.75 µM (inactive) | 6.43 µM (inactive) | 1.82 µM (inactive) | 2.32 | 4.36 µM (inactive) | 3.37 µM (inactive) | 18.8 µM (inactive) | 17.5 µM (inactive) | 2.93 µM (inactive) | 3.45 µM (inactive) | 7.62 µM (inactive) | 3.01 µM (inactive) | 9.66 µM (inactive) |
| C[C@H](CCC1=NCCN1)[C@H]1CC[C@H]2[C@@H]3[C@H](O)C[C@@H]4C[C@H](O)CC[C@]4(C)[C@H]3CC[C@]12C | 24 µM (inactive) | 12.7 µM (inactive) | 8.89 µM (inactive) | 11.4 µM (inactive) | 13.3 µM (inactive) | 10.3 µM (inactive) | 15.8 µM (inactive) | 15.3 µM (inactive) | 14.9 µM (inactive) | 14.7 µM (inactive) | 16.5 | 16.1 µM (inactive) | 13.6 µM (inactive) | 8.57 µM (inactive) | 14.3 µM (inactive) | 15.6 µM (inactive) | 14.8 µM (inactive) | 17.9 µM (inactive) | 12.9 µM (inactive) | 15.2 µM (inactive) |
| O=[N+]([O-])/C(C(Cl)=C(Cl)Cl)=C(/Cl)Sc1ccccc1 | 2.51 µM (inactive) | 0.185 µM (active) | 2.05 µM (inactive) | 1.8 µM (inactive) | 2 µM (inactive) | 1.87 µM (inactive) | 2.62 µM (inactive) | 1.82 µM (inactive) | 1.62 µM (inactive) | 1.23 µM (inactive) | 2.15 | 3.54 µM (inactive) | 1.31 µM (inactive) | 1.23 µM (inactive) | 3.32 µM (inactive) | 1.6 µM (inactive) | 3.03 µM (inactive) | 15.6 µM (inactive) | 1.99 µM (inactive) | 2.7 µM (inactive) |
| Cc1cn([C@@H]2C[C@H]2CO)c(=O)[nH]c1=O | > 100 µM (inactive) | > 100 µM (inactive) | > 100 µM (inactive) | > 100 µM (inactive) | > 100 µM (inactive) | > 100 µM (inactive) | > 100 µM (inactive) | > 100 µM (inactive) | > 100 µM (inactive) | > 100 µM (inactive) | > 100 | > 100 µM (inactive) | > 100 µM (inactive) | > 100 µM (inactive) | > 100 µM (inactive) | > 100 µM (inactive) | > 100 µM (inactive) | > 100 µM (inactive) | 57 µM (inactive) | > 100 µM (inactive) |
| CCC1=CC2Cc3nc4cc(Cl)ccc4c(N)c3C(C1)C2 (centres undefined) | 2.26 µM (inactive) | 3.35 µM (inactive) | 1.91 µM (inactive) | 6.04 µM (inactive) | 4.86 µM (inactive) | 4.54 µM (inactive) | 2.65 µM (inactive) | 1.54 µM (inactive) | 3.59 µM (inactive) | 7.5 µM (inactive) | 7.21 | 8.2 µM (inactive) | 2.54 µM (inactive) | 2.07 µM (inactive) | 11.2 µM (inactive) | 4.55 µM (inactive) | 2.52 µM (inactive) | 3.18 µM (inactive) | 9.27 µM (inactive) | 1.51 µM (inactive) |
| COc1ccc(C(=O)N(C(=S)OCCOc2ccccc2)c2ccccc2)cc1 | 47 µM (inactive) | 14.9 µM (inactive) | 20 µM (inactive) | 48 µM (inactive) | 18.4 µM (inactive) | 52 µM (inactive) | 26.5 µM (inactive) | 43.3 µM (inactive) | 24.5 µM (inactive) | 23.7 µM (inactive) | 44.2 | 71.3 µM (inactive) | 29.2 µM (inactive) | 30.5 µM (inactive) | 37.1 µM (inactive) | 28.4 µM (inactive) | 19.9 µM (inactive) | 31.6 µM (inactive) | 40.3 µM (inactive) | 34.4 µM (inactive) |
| CC(=O)c1c2c(cc3c1CC1(Cc4ccccc4C1=O)C3)CCC2 (centres undefined) | 8.55 µM (inactive) | 16.8 µM (inactive) | 12.2 µM (inactive) | – | 17.5 µM (inactive) | 19.7 µM (inactive) | 12 µM (inactive) | 27.3 µM (inactive) | 75.2 µM (inactive) | 25.5 µM (inactive) | 32.1 | 30.4 µM (inactive) | 16.7 µM (inactive) | 14.3 µM (inactive) | 34.7 µM (inactive) | 16.8 µM (inactive) | 6.87 µM (inactive) | 7.06 µM (inactive) | 31.8 µM (inactive) | 27.5 µM (inactive) |
| O=C(NCCN1C(=O)CN=C(c2ccc(Cl)cc2)c2cc(Cl)ccc21)OCc1ccccc1 | 14.2 µM (inactive) | 11.7 µM (inactive) | 14.7 µM (inactive) | 14.8 µM (inactive) | 11.2 µM (inactive) | 17.4 µM (inactive) | 10.8 µM (inactive) | 16.4 µM (inactive) | 8.71 µM (inactive) | 15.5 µM (inactive) | 13.4 | 19.8 µM (inactive) | 11.9 µM (inactive) | 19.8 µM (inactive) | 18.2 µM (inactive) | 16.8 µM (inactive) | 30.8 µM (inactive) | 20.7 µM (inactive) | 18.9 µM (inactive) | 14.3 µM (inactive) |
| O=[N+]([O-])C(=C(N1CCCCC1)N1CCCCC1)/C(Cl)=C(\Cl)Br | 13.3 µM (inactive) | 11.1 µM (inactive) | 19.4 µM (inactive) | 10.7 µM (inactive) | 21.5 µM (inactive) | 16.1 µM (inactive) | 20.5 µM (inactive) | 20.6 µM (inactive) | 24 µM (inactive) | 18.1 µM (inactive) | 16.4 | 44.7 µM (inactive) | 14.2 µM (inactive) | 20.3 µM (inactive) | 30.8 µM (inactive) | 28.2 µM (inactive) | 25.2 µM (inactive) | 16.4 µM (inactive) | 24.4 µM (inactive) | 17.5 µM (inactive) |
| Nc1nc(OCC2CCCCC2)c2nc[nH]c2n1 | 7.24 µM (inactive) | 11.2 µM (inactive) | 10.3 µM (inactive) | 12.6 µM (inactive) | 13.7 µM (inactive) | 8.75 µM (inactive) | 9.51 µM (inactive) | 8.73 µM (inactive) | 13.2 µM (inactive) | 9.1 µM (inactive) | 8.05 | 13.4 µM (inactive) | 11.4 µM (inactive) | 13 µM (inactive) | 9.77 µM (inactive) | 5.73 µM (inactive) | 6.98 µM (inactive) | 19.4 µM (inactive) | 11.5 µM (inactive) | 17.5 µM (inactive) |
